Source: US12240857B2 (priority 2017, dated 2025)
Counter-ions that a name gives are not always drawn. Like-named read-outs stand apart in the source and are kept apart here.

Key:
[1] = tested on: BDBV mucin-domain-deleted glycoprotein pseudotyped VSV; test: microbe, parasite or virus in culture; format: cell-based, Bundibugyo ebolavirus; settings: Vesicular stomatitis virus, Vero, read-out: EC50 BDBV
[2] = tested on: EBOV mucin-domain-deleted glycoprotein pseudotyped VSV; test: microbe, parasite or virus in culture; format: cell-based, Zaire ebolavirus; settings: Zaire ebolavirus, Vero, read-out: EC50 EBOV
[3] = in vitro; settings: African green monkey, CC50

SMILES | EC50 [1] | EC50 [2] | CC50 [3] | EC50 ([1]; 24 h) | EC50 ([2]; 24 h)
CC12CC3CC(C(=O)N[C@H]4[C@@H]5CNC[C@@H]54)(C1)CC(c1ccccc1)(C3)C2 (stereo partly drawn) [Example A102] | 210 nM | 120 nM | 29000 nM |  | 
O=C(CC12CC3CC(C1)CC(c1ccccc1)(C3)C2)NCC(=O)N1CC2CC1CN2Cc1ccccc1 (stereo not drawn) [Example A14] | 230 nM | 200 nM | 6200 nM |  | 
c1ccn2c(CN3CCCCC3)c(C34CC5CC(CC(C5)C3)C4)nc2c1 [Example D37] |  |  |  | 3200 nM | 8900 nM
O=C(N1CC2(CN(Cc3ccccc3)C2)C1)C12CC3CC(C1)CC(c1ccccc1)(C3)C2 [Example A9] | 290 nM | 230 nM | 10800 nM |  | 
CC12CC3CC(C(=O)NC4CCNCC4(F)F)(C1)CC(c1ccccc1)(C3)C2 (stereo not drawn) [Example A109] | 930 nM | 80 nM | 37000 nM |  | 
CN1CCCN(CC(O)COc2ccc(C34CC5CC(CC(C5)C3)C4)cc2)CC1 (stereo not drawn) [Example D30, 1-[4-(adamantan-1-yl)phenoxy]-3-(4-methyl-1,4-diazepan-1-yl)propan-2-ol] |  |  |  | 470 nM | 190 nM
C#CCN1CCC(C(=O)Nc2cc(C34CC5CC(CC(C5)C3)C4)n[nH]2)CC1 [Example D38, N-[5-(adamantan-1-yl)-1H-pyrazol-3-yl]-1-(prop-2-yn-1-yl) piperidine-4-carboxamide] |  |  |  | 6800 nM | 3700 nM
CN1CC(NC(=O)C23CC4CC(C2)CC(c2ccccc2)(C4)C3)C1 [Example A35] | 220 nM | 280 nM | > 10000 nM |  | 
N[C@H]1CC[C@H](NC(=O)NC23CC4CC(C2)CC(c2ccccc2)(C4)C3)CC1 [Example E2, 1-(4-aminocyclohexyl)-3-(3-phenyladamantan-1-yl)urea] | 610 nM | 870 nM | 12600 nM |  | 
CC1CCN(CCCOc2ccc(C34CC5CC(CC(C5)C3)C4)cc2)CC1 [Example C4, 1-(3-(4-(adamantan-1-yl)phenoxy)propyl)-4-methylpiperidine] | 400 nM | 140 nM | 7200 nM |  | 
CC12CC3CC(C(=O)NCC4CCNCC4)(C1)CC(c1ccccc1)(C3)C2 (stereo not drawn) [Example A95] | 970 nM | 490 nM | 23100 nM |  | 
CC12CC3CC(C(=O)NC4CC5(CC(N)C5)C4)(C1)CC(c1ccccc1)(C3)C2 (stereo not drawn) [Example A90] | 200 nM | 50 nM | 59000 nM |  | 
COC(=O)c1ccc(COc2ccccc2CN2CCC(NC(=O)CNC(=O)CC34CC5CC(CC(C5)C3)C4)CC2)cc1 [Example A55] | 2600 nM | 2900 nM | > 10000 nM |  | 
CC12CC3CC(C(=O)N[C@@H]4CCNC[C@H]4F)(C1)CC(c1ccccc1)(C3)C2 (stereo partly drawn) [Example A108] | 210 nM | 25 nM | 16500 nM |  | 
Cc1ccc(C23CC4CC(CC(C(=O)N5CCN(CCO)CC5)(C4)C2)C3)cc1 [Example B18, 2-(4-{[3-(4-methylphenyl)adamantan-1-yl]carbonyl}piperazin-1-yl)ethan-1-ol] |  |  |  | > 5000 nM | > 5000 nM
COc1ccccc1N1CCN(CC(O)COC23CC4CC(CC(C4)C2)C3)CC1 (stereo not drawn) [Example D19, 1-(adamantan-1-yloxy)-3-[4-(2-methoxyphenyl)piperazin-1-yl] propan-2-ol] |  |  |  |  | > 10000 nM
CN(C)CCNS(=O)(=O)c1ccc(C23CC4CC(CC(C4)C2)C3)cc1 [Example D33, 4-(adamantan-1-yl)-N-[2-(dimethylamino)ethyl] benzene-1-sulfonamide] |  |  |  | 420 nM | 440 nM
CCC(NCC(O)COc1ccccc1C(C)C)C12CC3CC(CC(C3)C1)C2 (stereo not drawn) [Example D3] |  |  |  |  | 1290 nM
COC(=O)c1ccc(COc2ccccc2CN2CC3CC2CN3C(=O)CC23CC4CC(CC(C4)C2)C3)cc1 (stereo not drawn) [Example A57] | > 10000 nM | 2900 nM |  |  | 
OC(COC12CC3CC(CC(C3)C1)C2)CN1CCc2ccccc2C1 (stereo not drawn) [Example D18, 1-(adamantan-1-yloxy)-3-(1,2,3,4-tetrahydroisoquinolin-2-yl)propan-2-ol] |  |  |  |  | > 10000 nM
CC1CCCCN1CC(O)COC12CC3CC(CC(C3)C1)C2 (stereo not drawn) [Example D20, 1-(adamantan-1-yloxy)-3-(2-methylpiperidin-1-yl)propan-2-ol] |  |  |  |  | > 10000 nM
OC(COc1ccc(C23CC4CC(CC(C4)C2)C3)cc1)CN1CCN(Cc2ccc3c(c2)OCO3)CC1 (stereo not drawn) [Example D31, 1-[4-(adamantan-1-yl)phenoxy]-3-[4-(2H-1,3-benzodioxo1-5-ylmethyl)piperazin-1-yl]propan-2-ol] |  |  |  | 1030 nM | 230 nM
CCOC12CC3CC(C1)CC(C(=O)NC1CCNCC1)(C3)C2 [Example A113] | > 1000 nM | > 1000 nM |  |  | 
CC(NC(=O)C1CCCN1)C12CC3CC(CC(C3)C1)C2 (stereo in doubt) [Example D43, (2R)-N-[1-(adamantan-1-yl)ethyl] pyrrolidine-2-carboxamide] |  |  |  | 2500 nM | 4600 nM
CCC1CCCCN1CC(O)COCCC12CC3CC(CC(C3)C1)C2 (stereo not drawn) [Example D9, 1-[2-(adamantan-1-yl)ethoxy]-3-(2-ethylpiperidin-1-yl)propan-2-ol hydrochloride] |  |  |  | 210 nM | 250 nM

SMILES | EC50 [1] | EC50 [2] | CC50 [3] | EC50 ([1]; 24 h) | EC50 ([2]; 24 h)
COc1ccc(OCC(O)CNCC23CC4CC(CC(C4)C2)C3)c(C(C)(C)C)c1 (stereo not drawn) [Example D2, (adamantan-1-ylmethyl) [3-(2-tert-butyl-4-methoxyphenoxy)-2-hydroxypropyl]amine] |  |  |  | 620 nM | 680 nM
O=C(NC1CCNCC1)C12CC3CC(CC(C3)C1)C2 [Example B19, N-(piperidin-4-yl)adamantane-1-carboxamide] |  |  |  | > 1000 nM | 1100 nM
N[C@H]1CC[C@H](NC(=O)C23CC4CC(C(=O)N5CCCC5)(C2)CC(c2ccccc2)(C4)C3)CC1 (stereo partly drawn) [Example A114] | > 1000 nM | > 1000 nM |  |  | 
COc1cccc(COCC(O)CNCC23CC4CC(CC(C4)C2)C3)c1 (stereo not drawn) [Example D6] |  |  |  | 1500 nM | 3450 nM
O=C(NC1CCN(Cc2ccccc2)CC1)C12CC3CC(CC1C3)C2 [Example A21] | > 10000 nM | > 10000 nM |  |  | 
OC(COCCC12CC3CC(CC(C3)C1)C2)CN1CCc2ccccc2C1 (stereo not drawn) [Example D14, 1-[2-(adamantan-1-yl)ethoxy]-3-(1,2,3,4-tetrahydroisoquinolin-2-yl) propan-2-ol] |  |  |  | 2670 nM | 2100 nM
COC(=O)c1ccc(COc2ccccc2CN2CCC3(CCN(C(=O)CNC(=O)CC45CC6CC(CC(C6)C4)C5)C3)C2)cc1 (stereo not drawn) [Example A59] | 1500 nM | 1100 nM |  |  | 
CC(C)C(NC(=O)C12CC3CC(CC(C3)C1)C2)C(=O)NC1CCN(Cc2ccccc2)CC1 (stereo not drawn) [Example B17, 2-(adamantan-1-ylformamido)-N-(1-benzylpiperidin-4-yl)-3-methylbutanamide] |  |  |  | < 5000 nM | > 5000 nM
COC(=O)[C@H]1CN(C(=O)C23CC4CC(C)(C2)CC(c2ccccc2)(C4)C3)CCN1 (stereo partly drawn) [Example A106] | > 1000 nM | > 1000 nM |  |  | 
CC12CC3CC(C(=O)NCC4(O)CNC4)(C1)CC(c1ccccc1)(C3)C2 (stereo not drawn) [Example A101] | > 1000 nM | > 1000 nM |  |  | 
CN(CCN(C)C(=O)C12CC3CC(C1)CC(c1ccccc1)(C3)C2)Cc1ccccc1 [Example A22] | 220 nM | 260 nM |  |  | 
OCCN(CCO)CC(O)COCCC12CC3CC(CC(C3)C1)C2 (stereo not drawn) [Example D17, 2-({3-[2-(adamantan-1yl)ethoxy]-2-hydroxypropyl}(2-hydroxyethyl)amino)ethan-1-ol] |  |  |  | 600 nM | 8800 nM
CN1CCN(c2nc(C34CC5CC(CC(C5)C3)C4)cs2)CC1 [Example D35, 1-[4-(adamantan-1-yl)-1,3-thiazol-2-yl]-4-methylpiperazine] |  |  |  | 620 nM | 440 nM
CN1CC[C@@H](NC(=O)CC23CC4CC(C2)CC(c2ccccc2)(C4)C3)C1 [Example A40] | 160 nM | 310 nM |  |  | 
O=C(CN1CCN(CCC23CC4CC(CC(C4)C2)C3)CC1)N1CCCCC1 [Example D7, 2-{4-[2-(adamantan-1-yl)ethyl]piperazin-1-yl}-1-(piperidin-1-yl) ethan-1-one] |  |  |  | 2600 nM | 6000 nM
OC(COCCC12CC3CC(CC(C3)C1)C2)CN1CCN(c2ccccn2)CC1 (stereo not drawn) [Example D15, 1-[2-(adamantan-1-yl)ethoxy]-3-[4-(pyridin-2-yl)piperazin-1-yl] propan-2-ol] |  |  |  | 2800 nM | 2900 nM
N[C@H]1CC[C@H](NC(=O)C23CC4CC(CO)(C2)CC(c2ccccc2)(C4)C3)CC1 (stereo partly drawn) [Example A116, trans-N-(4-aminocyclohexyl)-3-(hydroxymethyl)-5-phenyladamantane-1-carboxamide] | > 1000 nM | > 1000 nM |  |  | 
CN(C(=O)C12CC3CC(C1)CC(c1ccccc1)(C3)C2)C1CCN(Cc2ccccc2)CC1 [Example A23] | 170 nM | 210 nM |  |  | 
O=C(CC12CC3CC(C1)CC(c1ccccc1)(C3)C2)NCC(=O)N1CCC2(CCN(Cc3ccccc3)C2)C1 (stereo not drawn) [Example A11] | 230 nM | 200 nM |  |  | 
CCN1CCN(C(=O)C23CC4CC(C2)CC(c2ccc(C)cc2)(C4)C3)CC1 [Example B16, 1-ethyl-4-{[3-(4-methylphenyl)adamantan 1-yl]carbonyl} piperazine] |  |  |  | 900 nM | 1000 nM
O=C(CC12CC3CC(CC(C3)C1)C2)N1CC2CC1CN2Cc1ccccc1 (stereo not drawn) [Example A53] | 9000 nM | 9200 nM |  |  | 
O=C(CNC(=O)C12CC3CC(CC1C3)C2)N1CCN(Cc2ccccc2)CC1 [Example A18] | > 10000 nM | > 10000 nM |  |  | 
NCc1ccc(OCC23CC4CC(C2)CC(c2ccccc2)(C4)C3)cc1 [Example C17, {4-[(3-phenyladamantan-1-yl)methoxy]phenyl}methanamine] | 1200 nM | > 1000 nM |  |  | 
O=C(NC1CCNCC1)C12CC3CC(C1)CC(c1ccc([N+](=O)[O-])cc1)(C3)C2 [Example A76] | 1060 nM | 1050 nM |  |  | 
